Patent US20170100345A1, “WOUND HEALING USING BRAF INHIBITORS” (THE REGENTS OF THE UNIVERSITY OF CALIFORNIA, priority 2014, published 2017)
Several values for one entry are separate records, joined by “and”; a condition that tells them apart may be missing. Equal entries are not always repeated. Entries after “also recorded” stand apart in the source; their conditions may differ.

Columns and labels:
2.5 cm dorsal skin wound = assay: wound-healing assay in C3H mice, wound tensile strength by tensiometer; type: in vivo
Description: FIG. 5A is a schematic representation of the wound-healing assay performed in […] mice according to some embodiments.
In a controlled wound-healing assay in C3H mice, a 2.5 cm dorsal skin wound was induced and was filled with either vehicle control (DMSO/saline) or a suspension of 2 mM of vemurafenib (obtained by crushing clinical grade pills of this agent) in vehicle. The skin wounds were surgically clipped on day 0 and mice were followed until day 14 (FIGS. 5A-5B). Over this time, the vemurafenib suspension or vehicle control was applied topically every other day to 24 mice in the test group or to 24 mice in the control group, respectively, for a total of seven doses per mouse. On day 14, the mice were euthanized and the skin containing the wound was removed and mounted in 20 mm strips with a horizontal wound sample in each strip. The wound tensile strength (WTS) was analyzed using a tensiometer that stretched the strips and recorded the WTS in gram force (gf).

[1] = test system: BRAF^V600E mutant melanoma line M249; assay: three-dimensional soft agar colony assay, M249; type: cell-based, human; conditions: M249, with vs without exposure
Text: (§1) FIG. 2 illustrates that BRAF inhibition induces paradoxical MAPK activation in human keratinocytes leading to increased proliferation. FIG. 2A is a quantitative analysis of proliferation and scratch healing as the percentage relative wound density of cells at different time points in replicate cultures of HEKa in the presence or absence of vemurafenib by automated microscope analyzer. P value <0.0044 by t-test. […] FIG. 2C illustrates fold-change representation of colony quantification of HEKa and M249 cells grown in soft-agar with or without exposure to vemurafenib. […] The co-expression levels of pERK and Ki67 are shown in the middle of the panel, and quantified and represented a fold change on the left.
(§2) Quantitative analysis of proliferation is represented in FIG. 2A.
(§3) Human epithelial adult keratinocytes (HEKa) cultured in 96-well plates were subject to a scratch assay, where proliferating keratinocytes should regrow and cover the scratch. Replicate cultures with or without the BRAF inhibitor vemurafenib were placed in an incubator with an automated microscope analyzer and the number of nucleated cells in the original scratch was recorded over time. […] Using these cultures, paradoxical MAPK activation and cell proliferation were analyzed by western blot (FIGS. 2F-2G) and quantitative phosphoflow cytometry (FIG. 2H and FIGS. 4A-4B).

HEKa = assay: three-dimensional soft agar colony assay, HEKa; type: cell-based, human
Text: as §1, §2, §3

[2] = test system: pERK and Ki67 in BRAF^V600E mutant human melanoma cell line M249; assay: MAPK signaling and cell proliferation by western blot and phosphoflow cytometry, M249; type: cell-based; conditions: western blot and phosphoflow (VEM 2 μM)
Text: as §1, §3

[3] = test system: MAPK and wound healing pathway output; assay: RNASeq gene expression profiling of healing cutaneous wounds; type: in vivo, mice
Description: The skin samples obtained from mice treated either with vemurafenib or vehicle were analyzed for changes in MAPK and wound healing pathway output by RNASeq. The gene output of MAPK was compared to published data on the transcripts that were differentially modulated by blocking oncogenic MAPK signaling downstream of mutated BRAF^V600E using BRAF inhibitors, or to a published cutaneous wound healing gene signature.

[4] = test system: pERK and Ki67 in HEKa cells; assay: paradoxical MAPK activation and cell proliferation by western blot and phosphoflow cytometry, HEKa; type: cell-based, human; conditions: western blot and phosphoflow (VEM 2 μM)
Text: as §1, §3

[5] = test system: skin wounds and their surroundings; assay: histological analysis (H&E) of healing wounds in mice; type: in vivo
Text: FIG. 6 is a schematic representation of the pathological analysis of wound healing on days 1 (D1), 2 (D2) and 6 (D6) post-treatment. […] Wound-adjacent epidermis undergoes hyperplasia and proliferation and epidermal cells from this process migrate centrally to seal the incised epidermal deficiency. The space of the incision fills initially with fibrin, which is then colonized by fibroblasts, macrophages, polymorphonuclear cells and new capillaries. […] Each bar includes data from 4 samples.
The area of the wounds and their surroundings were analyzed histologically by H&E staining by two pathologists and the extent of epidermal hyperplasia on both sides of the healing wounds was measured on days 1, 2 and 6 post-treatment (FIGS. 6A and 6B).

[6] = test system: Human epithelial adult keratinocytes (HEKa); assay: scratch assay of HEKa, automated microscope analyzer; type: cell-based; conditions: HEKa with vs without vemurafenib; evident at 6, 8 and 12 hours
Text: as §1, §2, §3

[7] = test system: Human epithelial adult keratinocytes (HEKa); assay: cell proliferation wound-healing assay, 96 well plates with seeder stoppers; type: cell-based; conditions: 24 hours, vs control treated wells
Text: as §1, §3

With `CCCS(=O)(=O)Nc1ccc(F)c(C(=O)c2c[nH]c3ncc(-c4ccc(Cl)cc4)cc23)c1F` [vemurafenib] the “improvement in wound tensile strength (WTS) compared to saline control” value (2.5 cm dorsal skin wound; C3H mice, 2 mM suspension topically every other day, day 14, three independent replicate experiments (#1-3)) was 52.6% and 32.9% and 42.8%, the “improvement in WTS vs. vehicle control” value (2.5 cm dorsal skin wound; separate cutaneous wound-healing assay (Experiment #4), trametinib 1 mg/kg where added) was 37% and the “tensile strength of healing wounds (in words)” value (2.5 cm dorsal skin wound; wound-healing mouse model, topically applied) was “improved the tensile strength of healing wounds”. The “number of M249 colonies in soft agar” value [1] was “decrease in colonies”, the “mean spot size of HEKa colonies” value (HEKa; soft agar) was “increased significantly” and the “number of HEKa colonies in soft agar” value (HEKa; with vs without exposure) was “increased in number”. The “cell cycle (Ki67)” value [2] was “cell cycle arrest”, the pERK [2] was “decreased pERK” and the “BRAF and wound-healing signatures, later course” value ([3]; after day 6, time point not given) was “more pronounced decrease”. The BRAF signature genes ([3]; day 2, vs control) was “slight increase”, the wound-healing signature genes ([3]; day 2, vs control) was “almost no change” and the BRAF signature genes ([3]; day 6, vs control) was “enriched significantly”. The wound-healing signature genes ([3]; day 6, vs control) was “enriched significantly”, the “cell cycle (Ki67)” value [4] was “cell cycle progression” and the pERK [4] was “paradoxical increase in pERK”. For the same molecule, the wounds re-epithelialized ([5]; by day 6) was 100%, the “extent (length) of epidermal hyperplasia vs other treated groups” value ([5]; day 1 and 2) was “epidermal hyperplasia over a greater distance than the other treated groups” and the wound-adjacent epidermal inflammation ([5]; day 1 post-incision) was “more extensive”. The “wound-adjacent (peri-lesional) epidermal hyperplasia, photomicrographs” value ([5]; day 2 post-incision) was “more extensive”, the “dermal reparative / sub-epidermal fibrosis” value ([5]; day 6) was “beginning of sub-epidermal fibrosis” and the “extent (length) of epidermal hyperplasia vs other treated groups” value ([5]; day 6) was “less epidermal hyperplasia”. For the same molecule, the skin surface integrity ([5]; day 6) was “surface integrity was re-established; also recorded: Skin surface integrity re-established in 6 days”, the “healing process / signs of healing or repair (pathologists' assessment)” value ([5]; days 1 to 6) was “the healing process is accelerated” and the onset of re-epithelialization ([5]; from day 2) was “strong and rapid re-epithelialization starting at day 2”. For the same molecule, the “covering of the original scratch (proliferation and scratch healing, relative wound density)” value [6] was “accelerated the proliferation and migration of human keratinocytes; also recorded: statistically significant improvement in the covering of the original scratch” and the “covering of the center of the wells by proliferating/migrating keratinocytes” value [7] was “covered the center of the wells after 24 hours”.
